According to PMC11050070, “Chemical Modifications to Enhance the Drug Properties of a VIP Receptor Antagonist (ANT) Peptide” (International Journal of Molecular Sciences, 2024):
Where no end group is shown, it is not given here.

Experiment: Plasma stability T cell activation study
Assay type: in vitro ADME
Settings: 200 μM peptide mixed 1:1 with healthy donors' plasma, 37 °C, aliquots at 24, 48, 72, 96 hrs; read-out pooled human T cell activation at 10 μM; three donors' plasma; retained up to 96 h (longest time tested); Figure S1
Experimental: 1.3 Plasma Stability T Cell Activation Study
200 μM ANT308 or 200 μM ANT308K-PEG were mixed with healthy donors’ plasma at 1:1 ratio, followed by incubation at 37 °C. Aliquots (150 μL) were collected at 24 hrs, 48 hrs, 72 hrs, and 96 hrs and stored at -80 °C before pooled human T cells activation assay. Assays were performed with three different donor ’s plasma.
Activated T cells Activated T cells
Non-Activated T cells Non-Activated T cells […]
Diffe rentDonors’ plasma Diffe rentDonors’ plasma
Pre-incubation Time ( hrs) Pre-incubation Time ( hrs)
Figure S1A-F: Plasma stability and human T cells activation. After incubation with healthy donors’ plasma at 37 °C for 24hrs, 48hrs, 72hrs, and 96hrs. 10 μM ANT308 (A,C,E) or 10 μM ANT308K-PEG (B,D,F) were directly mixed with isolated & pooled human T cells with the […]

## KPRRPYTSDYTRLRKQMAVKKYLNLILN-NH2 [ANT308]
  time of incubation in human plasma after which the ability to activate human T cells is retained: ≥ 96 h
